Reference: ChEMBL document CHEMBL1921687, “(2-Benzyl-2,3,4,5-tetrahydro-1H-pyrido[4,3-b]indol-8-yl)-acetic acid: an aldose reductase inhibitor and antioxidant of zwitterionic nature” (Bioorg Med Chem, 2011)
Blank lines part the entries; values can stand above or below the molecule they belong to. Calls of active or inactive are those of the source. The rule behind the calls is not given here.

Key:
Erythrocyte [1] = assay: Antioxidant activity in Wistar rat erythrocytes assessed as prolongation of initial inhibition period-lag phase of t-BuOOH-induced hemolysis at 10 mM preincubated for 30 mins before induction measured up to 5 hrs by spectrophotometry; format: functional, cell-based
Erythrocyte [2] = assay: Antioxidant activity in Wistar rat erythrocytes assessed as prolongation of initial inhibition period-lag phase of AAPH-induced hemolysis at 100 uM preincubated for 30 mins before induction measured up to 5 hrs by spectrophotometry; format: functional, cell-based
Erythrocyte [3] = assay: Antioxidant activity in Wistar rat erythrocytes assessed as prolongation of initial inhibition period-lag phase of t-BuOOH-induced hemolysis at 100 uM preincubated for 30 mins before induction measured up to 5 hrs by spectrophotometry; format: functional, cell-based
Rattus norvegicus [4] = assay: Inhibition of sorbitol accumulation in streptozotocin-induced diabetic rat erythrocytes at 25 mg/kg intra-gastrically bid for 4 days followed by single dose on 5th day measured after 3 hrs final dose by resazurin reduction assay; format: functional, organism-based; design: dose 25 mg/kg
Erythrocyte [5] = assay: Antioxidant activity in Wistar rat erythrocytes assessed as prolongation of initial inhibition period-lag phase of t-BuOOH-induced hemolysis at 100 uM treated 30 mins after induction measured up to 5 hrs by spectrophotometry; format: functional, cell-based
[6] = molecular target: Aldo-keto reductase family 1 member B1 (Homo sapiens, UniProt P15121); assay: Inhibition of aldose reductase
Rattus norvegicus [7] = assay: Antidiabetic activity in streptozotocin-induced diabetic rat assessed as reduction in blood glucose level at 25 mg/kg intra-gastrically administered bid for 4 days followed by single dose on 5th day measured after 3 hrs final dose; format: functional, organism-based; design: dose 25 mg/kg
Erythrocyte [8] = assay: Antioxidant activity in Wistar rat erythrocytes assessed as prolongation of initial inhibition period-lag phase of t-BuOOH-induced hemolysis at 2.5 uM preincubated for 30 mins before induction measured up to 5 hrs by spectrophotometry; format: functional, cell-based

SMILES: NCCC(=O)N[C@@H](Cc1c[nH]cn1)C(=O)O
Activity (Erythrocyte [1]): Active

SMILES: Cc1c(C)c2c(c(C)c1O)CCC(C)(C(=O)O)O2 (centres undefined)
Activity (Erythrocyte [2]): Active

SMILES: COc1ccc2[nH]cc(CCNC(C)=O)c2c1
Activity (Erythrocyte [3]): inactive

IC50 [6]: 18.2 µM
SMILES: O=C(O)Cc1ccc2[nH]c3c(c2c1)CN(Cc1ccccc1)CC3
Activity (Erythrocyte [2]): Active
inhibition (Rattus norvegicus [4]): Active
Activity (Erythrocyte [5]): inactive
Activity (Rattus norvegicus [7]): inactive
Activity (Erythrocyte [8]): Active
